Test results from ChEMBL document CHEMBL5104230, “Preparation, biological evaluation and QSAR analysis of urea substituted 2,4-diamino-pyrimidine anti-malarials” (RSC Med Chem, 2022).
Converted amounts (≈) assume the structure as drawn.

What was measured:
[1] = tested on: Plasmodium falciparum; assay: Antimalarial activity against chloroquine sensitive Plasmodium falciparum 3D7 infected in human RBC assessed as parasite growth inhibition incubated for 72 hrs by SYBR Green dye based fluorescence assay; type: functional, organism-based; conditions: 3D7, Erythrocyte
[2] = tested on: HepG2; assay: Cytotoxicity against human HepG2 cells assessed as cell growth inhibition incubated for 72 hrs by resazurin dye based fluorescence assay; type: functional; conditions: HepG2, 72 h
[3] = biological target: Receptor tyrosine-protein kinase erbB-4 (Homo sapiens) (UniProt Q15303); assay: Inhibition of human HER4 at 1 uM incubated for 30 mins in presence of [gamma-33P]ATP by kinase selectivity assay
Chain of Receptor tyrosine-protein kinase erbB-4 (Homo sapiens) (Q15303 whole entry): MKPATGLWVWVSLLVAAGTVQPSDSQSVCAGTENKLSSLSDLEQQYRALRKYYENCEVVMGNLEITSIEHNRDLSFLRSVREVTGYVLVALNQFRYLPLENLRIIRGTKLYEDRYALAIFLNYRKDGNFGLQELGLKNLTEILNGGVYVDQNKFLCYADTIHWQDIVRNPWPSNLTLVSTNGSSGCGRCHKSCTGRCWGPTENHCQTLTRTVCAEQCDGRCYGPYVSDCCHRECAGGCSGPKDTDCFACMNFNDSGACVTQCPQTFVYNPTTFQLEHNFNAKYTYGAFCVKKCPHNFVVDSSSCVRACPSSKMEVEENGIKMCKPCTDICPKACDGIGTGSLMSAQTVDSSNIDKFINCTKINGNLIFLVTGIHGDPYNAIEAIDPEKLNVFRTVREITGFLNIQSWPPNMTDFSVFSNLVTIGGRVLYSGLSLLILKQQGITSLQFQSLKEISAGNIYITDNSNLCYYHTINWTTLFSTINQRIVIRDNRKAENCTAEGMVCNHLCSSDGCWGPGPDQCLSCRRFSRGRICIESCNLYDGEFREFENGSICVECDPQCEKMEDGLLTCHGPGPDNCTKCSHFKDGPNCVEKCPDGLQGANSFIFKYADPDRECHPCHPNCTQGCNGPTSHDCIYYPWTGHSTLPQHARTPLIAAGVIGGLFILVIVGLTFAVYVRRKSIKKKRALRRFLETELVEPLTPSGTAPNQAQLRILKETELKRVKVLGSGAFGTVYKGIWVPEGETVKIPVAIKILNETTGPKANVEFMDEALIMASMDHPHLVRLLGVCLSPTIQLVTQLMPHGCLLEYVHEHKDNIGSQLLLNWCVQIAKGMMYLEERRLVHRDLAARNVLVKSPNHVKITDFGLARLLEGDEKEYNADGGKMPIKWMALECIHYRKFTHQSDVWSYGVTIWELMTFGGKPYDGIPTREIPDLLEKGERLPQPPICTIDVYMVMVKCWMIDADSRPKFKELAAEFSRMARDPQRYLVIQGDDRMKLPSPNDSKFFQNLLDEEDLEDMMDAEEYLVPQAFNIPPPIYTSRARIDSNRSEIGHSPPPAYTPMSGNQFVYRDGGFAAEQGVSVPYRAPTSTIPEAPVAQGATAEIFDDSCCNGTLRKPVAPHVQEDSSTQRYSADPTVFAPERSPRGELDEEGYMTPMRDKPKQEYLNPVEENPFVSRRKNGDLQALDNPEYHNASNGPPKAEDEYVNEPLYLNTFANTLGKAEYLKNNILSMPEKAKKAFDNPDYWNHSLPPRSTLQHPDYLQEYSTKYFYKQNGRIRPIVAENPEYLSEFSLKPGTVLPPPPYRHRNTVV

[4] = Metabolic stability in CD1 mouse liver microsome assessed as intrinsic clearance at 0.5 uM incubated upto 30 mins by UPLC-MS/MS analysis; type: ADME; conditions: microsomes, 0.5 h
[5] = Aqueous solubility of compound in PBS buffer at pH 7.4 by HPLC-UV analysis; type: physicochemical
[6] = Partition coefficient, logD of compound in octanol and phosphate buffer at pH 7.4 incubated for 6 hrs under shaking condition by HPLC-UV analysis; type: physicochemical
[7] = biological target: Mitogen-activated protein kinase 3 (Homo sapiens) (UniProt P27361); assay: Inhibition of human ERK1 at 1 uM incubated for 30 mins in presence of [gamma-33P]ATP by kinase selectivity assay
Chain of Mitogen-activated protein kinase 3 (Homo sapiens) (P27361 whole entry): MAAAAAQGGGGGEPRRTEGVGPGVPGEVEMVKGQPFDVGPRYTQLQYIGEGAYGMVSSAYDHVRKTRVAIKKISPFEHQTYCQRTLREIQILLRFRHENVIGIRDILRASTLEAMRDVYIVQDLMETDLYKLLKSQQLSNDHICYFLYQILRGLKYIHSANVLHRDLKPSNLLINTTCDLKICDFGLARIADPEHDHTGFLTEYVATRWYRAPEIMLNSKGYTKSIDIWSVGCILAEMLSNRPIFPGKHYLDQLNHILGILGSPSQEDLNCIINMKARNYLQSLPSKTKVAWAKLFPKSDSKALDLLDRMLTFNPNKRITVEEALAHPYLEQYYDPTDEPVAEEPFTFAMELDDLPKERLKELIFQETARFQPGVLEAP

[8] = biological target: Vascular endothelial growth factor receptor 1 (Homo sapiens) (UniProt P17948); assay: Inhibition of human VEGFR1 at 1 uM incubated for 30 mins in presence of [gamma-33P]ATP by kinase selectivity assay
Chain of Vascular endothelial growth factor receptor 1 (Homo sapiens) (P17948 whole entry): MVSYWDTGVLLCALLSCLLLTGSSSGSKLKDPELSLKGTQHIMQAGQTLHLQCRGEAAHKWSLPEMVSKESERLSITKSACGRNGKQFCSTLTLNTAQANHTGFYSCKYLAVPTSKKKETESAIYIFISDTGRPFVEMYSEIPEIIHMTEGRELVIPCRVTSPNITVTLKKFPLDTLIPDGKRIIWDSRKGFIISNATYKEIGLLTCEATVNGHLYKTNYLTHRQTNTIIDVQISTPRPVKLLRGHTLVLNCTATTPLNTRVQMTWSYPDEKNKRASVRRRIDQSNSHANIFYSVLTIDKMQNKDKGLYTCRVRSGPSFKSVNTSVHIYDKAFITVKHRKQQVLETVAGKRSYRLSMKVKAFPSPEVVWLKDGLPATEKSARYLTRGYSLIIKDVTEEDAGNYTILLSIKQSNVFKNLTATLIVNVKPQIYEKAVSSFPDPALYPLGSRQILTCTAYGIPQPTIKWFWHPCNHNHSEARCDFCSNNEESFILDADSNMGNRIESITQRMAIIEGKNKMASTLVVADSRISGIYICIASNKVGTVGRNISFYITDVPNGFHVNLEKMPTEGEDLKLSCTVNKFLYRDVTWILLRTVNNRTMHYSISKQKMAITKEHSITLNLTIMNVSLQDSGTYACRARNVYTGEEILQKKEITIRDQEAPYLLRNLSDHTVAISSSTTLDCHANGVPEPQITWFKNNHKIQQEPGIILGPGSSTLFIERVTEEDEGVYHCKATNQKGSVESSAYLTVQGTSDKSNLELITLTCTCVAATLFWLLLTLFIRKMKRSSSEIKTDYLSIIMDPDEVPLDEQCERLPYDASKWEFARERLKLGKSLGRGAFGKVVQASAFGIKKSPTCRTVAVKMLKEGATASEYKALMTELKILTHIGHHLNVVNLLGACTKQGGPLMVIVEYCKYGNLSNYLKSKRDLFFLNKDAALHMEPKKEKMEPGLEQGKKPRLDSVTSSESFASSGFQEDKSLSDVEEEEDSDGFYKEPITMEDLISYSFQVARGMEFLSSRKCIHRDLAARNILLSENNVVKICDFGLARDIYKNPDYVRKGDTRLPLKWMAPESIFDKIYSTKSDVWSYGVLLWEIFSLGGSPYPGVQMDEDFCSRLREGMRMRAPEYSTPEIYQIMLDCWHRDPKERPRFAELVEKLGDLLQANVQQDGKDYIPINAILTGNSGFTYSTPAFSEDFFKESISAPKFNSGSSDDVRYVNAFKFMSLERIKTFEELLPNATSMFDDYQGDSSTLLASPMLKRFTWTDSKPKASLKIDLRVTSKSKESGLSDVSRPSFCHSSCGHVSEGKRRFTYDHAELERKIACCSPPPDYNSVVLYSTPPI

[9] = biological target: T1, Tyrosine-protein kinase JAK3 (Homo sapiens) (UniProt P52333); assay: Inhibition of human JAK3 at 1 uM incubated for 30 mins in presence of [gamma-33P]ATP by kinase selectivity assay
T1 sequence (whole entry): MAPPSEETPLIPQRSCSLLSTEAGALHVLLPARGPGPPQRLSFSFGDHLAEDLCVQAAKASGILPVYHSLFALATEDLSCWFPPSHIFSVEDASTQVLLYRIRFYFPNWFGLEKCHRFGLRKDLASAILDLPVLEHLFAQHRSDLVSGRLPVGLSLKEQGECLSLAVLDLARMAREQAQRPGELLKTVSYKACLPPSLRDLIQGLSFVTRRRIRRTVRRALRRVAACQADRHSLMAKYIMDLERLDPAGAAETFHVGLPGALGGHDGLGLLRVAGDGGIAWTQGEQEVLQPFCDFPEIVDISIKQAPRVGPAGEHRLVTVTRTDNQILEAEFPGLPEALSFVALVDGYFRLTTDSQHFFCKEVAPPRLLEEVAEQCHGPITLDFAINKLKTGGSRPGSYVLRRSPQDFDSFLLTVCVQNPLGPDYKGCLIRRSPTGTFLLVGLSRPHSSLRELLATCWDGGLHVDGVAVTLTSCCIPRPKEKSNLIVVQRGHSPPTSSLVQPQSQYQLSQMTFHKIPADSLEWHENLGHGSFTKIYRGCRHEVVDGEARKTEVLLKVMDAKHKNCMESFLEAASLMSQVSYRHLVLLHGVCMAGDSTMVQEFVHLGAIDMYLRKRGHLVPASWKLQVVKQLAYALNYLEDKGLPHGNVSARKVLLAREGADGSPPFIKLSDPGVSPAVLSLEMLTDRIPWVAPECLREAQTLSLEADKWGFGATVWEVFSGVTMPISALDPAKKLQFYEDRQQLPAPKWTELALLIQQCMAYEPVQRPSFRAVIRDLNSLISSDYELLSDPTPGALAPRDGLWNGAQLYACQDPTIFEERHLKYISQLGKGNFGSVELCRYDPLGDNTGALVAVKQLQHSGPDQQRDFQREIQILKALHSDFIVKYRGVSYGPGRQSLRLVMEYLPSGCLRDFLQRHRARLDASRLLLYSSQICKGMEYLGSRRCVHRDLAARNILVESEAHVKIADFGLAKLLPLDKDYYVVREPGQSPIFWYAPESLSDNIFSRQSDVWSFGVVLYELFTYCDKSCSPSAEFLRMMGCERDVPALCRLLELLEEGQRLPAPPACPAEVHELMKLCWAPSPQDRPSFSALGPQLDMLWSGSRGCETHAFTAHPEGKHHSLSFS

[10] = Metabolic stability in human liver microsome assessed as intrinsic clearance at 0.5 uM incubated upto 30 mins by UPLC-MS/MS analysis; type: ADME; conditions: microsomes, 0.5 h
[11] = biological target: Mitogen-activated protein kinase 8 (Homo sapiens) (UniProt P45983); assay: Inhibition of human JNK1 at 1 uM incubated for 30 mins in presence of [gamma-33P]ATP by kinase selectivity assay
[12] = biological target: T2, Mitogen-activated protein kinase kinase kinase 7 (Homo sapiens) (UniProt O43318); assay: Inhibition of human TAK1 at 1 uM incubated for 30 mins in presence of [gamma-33P]ATP by kinase selectivity assay
T2 sequence (whole entry): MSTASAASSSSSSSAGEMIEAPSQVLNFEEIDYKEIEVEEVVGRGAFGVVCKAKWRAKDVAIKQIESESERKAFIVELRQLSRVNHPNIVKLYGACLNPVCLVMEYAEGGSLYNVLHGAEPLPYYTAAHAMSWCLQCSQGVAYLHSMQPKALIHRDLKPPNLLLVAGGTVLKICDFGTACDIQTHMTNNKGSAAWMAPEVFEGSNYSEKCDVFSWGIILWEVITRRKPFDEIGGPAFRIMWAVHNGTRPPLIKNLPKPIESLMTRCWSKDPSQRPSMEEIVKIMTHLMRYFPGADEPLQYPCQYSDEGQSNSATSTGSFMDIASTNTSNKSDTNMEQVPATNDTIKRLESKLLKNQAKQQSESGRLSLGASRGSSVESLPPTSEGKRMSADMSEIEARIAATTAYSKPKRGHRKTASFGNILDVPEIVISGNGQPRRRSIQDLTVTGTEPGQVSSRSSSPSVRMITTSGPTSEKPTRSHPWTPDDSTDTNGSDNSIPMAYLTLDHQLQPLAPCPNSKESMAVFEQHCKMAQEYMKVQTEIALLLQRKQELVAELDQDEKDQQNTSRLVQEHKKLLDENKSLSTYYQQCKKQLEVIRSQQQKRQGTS

[13] = biological target: Cyclin-dependent kinase 2 (Homo sapiens) (UniProt P24941); assay: Inhibition of human CDK2 at 1 uM incubated for 30 mins in presence of [gamma-33P]ATP by kinase selectivity assay
[14] = biological target: T3, Aurora kinase A (Homo sapiens) (UniProt O14965); assay: Inhibition of human AURA at 1 uM incubated for 30 mins in presence of [gamma-33P]ATP by kinase selectivity assay
T3 sequence (whole entry): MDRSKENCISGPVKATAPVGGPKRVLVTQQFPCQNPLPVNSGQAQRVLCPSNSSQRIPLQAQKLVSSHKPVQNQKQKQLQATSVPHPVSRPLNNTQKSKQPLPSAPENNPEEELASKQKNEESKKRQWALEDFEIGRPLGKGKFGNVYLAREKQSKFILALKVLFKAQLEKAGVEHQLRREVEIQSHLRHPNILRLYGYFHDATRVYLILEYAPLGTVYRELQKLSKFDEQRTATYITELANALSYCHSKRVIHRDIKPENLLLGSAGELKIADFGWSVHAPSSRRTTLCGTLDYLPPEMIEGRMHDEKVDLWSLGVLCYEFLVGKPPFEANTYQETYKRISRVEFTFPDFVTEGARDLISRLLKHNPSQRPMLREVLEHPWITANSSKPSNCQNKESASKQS

[15] = biological target: Mitogen-activated protein kinase kinase kinase 1 (Homo sapiens) (UniProt Q13233); assay: Inhibition of human MEKK1 at 1 uM incubated for 30 mins in presence of [gamma-33P]ATP by kinase selectivity assay
Chain of Mitogen-activated protein kinase kinase kinase 1 (Homo sapiens) (Q13233 whole entry): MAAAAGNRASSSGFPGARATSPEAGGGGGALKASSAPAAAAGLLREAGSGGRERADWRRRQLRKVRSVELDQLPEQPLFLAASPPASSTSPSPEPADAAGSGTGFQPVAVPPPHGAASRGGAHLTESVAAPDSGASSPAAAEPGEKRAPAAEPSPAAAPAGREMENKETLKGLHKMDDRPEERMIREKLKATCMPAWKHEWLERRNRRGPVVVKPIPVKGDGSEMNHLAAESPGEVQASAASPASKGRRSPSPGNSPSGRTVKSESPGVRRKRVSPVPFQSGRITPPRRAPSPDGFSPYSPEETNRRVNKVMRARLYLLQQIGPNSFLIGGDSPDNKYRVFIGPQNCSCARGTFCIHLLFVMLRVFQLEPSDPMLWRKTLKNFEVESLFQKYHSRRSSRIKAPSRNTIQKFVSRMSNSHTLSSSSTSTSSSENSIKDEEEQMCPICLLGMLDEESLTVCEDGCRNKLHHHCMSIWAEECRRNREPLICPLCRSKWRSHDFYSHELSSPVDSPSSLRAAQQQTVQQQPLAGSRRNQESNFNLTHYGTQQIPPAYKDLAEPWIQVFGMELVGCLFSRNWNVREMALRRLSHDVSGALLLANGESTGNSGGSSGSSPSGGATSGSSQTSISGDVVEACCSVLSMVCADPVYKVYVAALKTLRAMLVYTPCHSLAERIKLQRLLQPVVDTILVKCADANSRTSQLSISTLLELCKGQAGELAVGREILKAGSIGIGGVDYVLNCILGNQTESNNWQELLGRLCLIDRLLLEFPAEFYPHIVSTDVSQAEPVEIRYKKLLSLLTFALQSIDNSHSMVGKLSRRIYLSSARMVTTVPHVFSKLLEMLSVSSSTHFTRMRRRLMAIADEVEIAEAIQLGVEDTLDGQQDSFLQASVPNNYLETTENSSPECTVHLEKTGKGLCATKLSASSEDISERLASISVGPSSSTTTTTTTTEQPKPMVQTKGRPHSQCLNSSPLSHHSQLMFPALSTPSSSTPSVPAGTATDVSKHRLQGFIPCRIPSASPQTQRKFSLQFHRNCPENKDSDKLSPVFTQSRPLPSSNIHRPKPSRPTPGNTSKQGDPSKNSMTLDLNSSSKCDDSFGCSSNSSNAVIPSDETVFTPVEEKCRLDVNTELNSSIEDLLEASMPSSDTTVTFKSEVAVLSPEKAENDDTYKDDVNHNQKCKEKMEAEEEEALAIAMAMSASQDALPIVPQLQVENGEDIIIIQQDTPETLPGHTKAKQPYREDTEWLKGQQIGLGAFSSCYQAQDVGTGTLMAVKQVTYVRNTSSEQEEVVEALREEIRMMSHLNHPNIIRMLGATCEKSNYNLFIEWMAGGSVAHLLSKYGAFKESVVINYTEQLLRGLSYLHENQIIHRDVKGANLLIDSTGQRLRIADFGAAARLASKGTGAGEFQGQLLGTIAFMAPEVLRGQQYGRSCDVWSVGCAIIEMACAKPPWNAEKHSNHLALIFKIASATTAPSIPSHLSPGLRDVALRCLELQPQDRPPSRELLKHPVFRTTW

[16] = biological target: Serine/threonine-protein kinase pim-1 (Homo sapiens) (UniProt P11309); assay: Inhibition of human PIM1 at 1 uM incubated for 30 mins in presence of [gamma-33P]ATP by kinase selectivity assay
Chain of Serine/threonine-protein kinase pim-1 (Homo sapiens) (P11309 whole entry, looked up): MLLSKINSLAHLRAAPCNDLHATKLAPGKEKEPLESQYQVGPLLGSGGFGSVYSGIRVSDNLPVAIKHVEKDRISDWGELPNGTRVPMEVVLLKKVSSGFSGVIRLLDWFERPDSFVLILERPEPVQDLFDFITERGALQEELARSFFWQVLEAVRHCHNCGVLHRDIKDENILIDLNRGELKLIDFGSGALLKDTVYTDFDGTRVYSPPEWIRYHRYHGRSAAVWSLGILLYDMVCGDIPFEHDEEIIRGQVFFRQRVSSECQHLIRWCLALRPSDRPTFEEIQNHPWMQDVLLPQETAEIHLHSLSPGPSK

SMILES	IC50 [1] [µM]	IC50 [2] [µM]	other results
O=C(Nc1ccc(F)cc1)Nc1ccc(Nc2nccc(Nc3ccc4cn[nH]c4c3)n2)cc1	0.79	3.5	–
O=C(Nc1ccc(F)cc1)Nc1cccc(Nc2nccc(Nc3ccc4cn[nH]c4c3)n2)c1	0.4	12	–
O=C(Nc1ccccc1)Nc1cccc(Nc2ncc(Cl)c(Nc3ccc4cn[nH]c4c3)n2)c1	2.5	3.5	–
Nc1cnc(Nc2cccc(NC(=O)Nc3ccccc3)c2)nc1Nc1ccc2cn[nH]c2c1	2.9	> 25	–
O=C(Nc1ccccc1)Nc1cccc(Nc2nccc(Nc3ccc4[nH]ncc4c3)n2)c1	0.33	8.1	–
O=C(Nc1ccccc1)Nc1cc(Nc2nccc(Nc3ccc4cn[nH]c4c3)n2)ccc1O	1.4	25	–
c1cc(Nc2ccc3cn[nH]c3c2)nc(Nc2ccc(Cn3cncn3)cc2)n1	7.2	18	–
Cn1cc2ccc(Nc3ccnc(Nc4cccc(NC(=O)Nc5ccccc5)c4)n3)cc2n1	0.22	12	inhibition [3]: 67.7%; CLH [4]: > 50 mL/min/g; solubility [5]: 0.11 µg/mL (≈ 0.244 µM); logD at 6 h [6]: ≥ 4; inhibition [7]: 65.6%; inhibition [8]: 4.1%; inhibition [9]: 51.4%; CLH [10]: 9.1 mL/min/g; inhibition [11]: 68.8%; inhibition [12]: 35.8%; inhibition [13]: 78.7%; inhibition [14]: 22%; inhibition [15]: 52.4%; inhibition [16]: 102%
Cc1ccc(Nc2nccc(Nc3ccc4cn[nH]c4c3)n2)cc1NC(=O)Nc1ccccc1	1	8.9	–
Cc1ccc(NC(=O)Nc2cccc(Nc3nccc(Nc4ccc5cn[nH]c5c4)n3)c2)cc1	0.72	11	–
O=C(Nc1ccccc1)Nc1cccc(Nc2ncc([N+](=O)[O-])c(Nc3ccc4cn[nH]c4c3)n2)c1	6.4	> 25	–
O=C1NC(Cc2ccc(Nc3nccc(Nc4ccc5cn[nH]c5c4)n3)cc2)CO1 (centres undefined)	7.1	20	–
COc1ccc(NC(=O)Nc2ccccc2)cc1Nc1nccc(Nc2ccc3cn[nH]c3c2)n1	1.5	6.5	–
c1cc(Nc2ccc3nc[nH]c3c2)nc(Nc2ccc(OCCN3CCOCC3)cc2)n1	1.2	> 25	–
O[C@@H](c1cc(C(F)(F)F)nc2c(C(F)(F)F)cccc12)[C@H]1CCCCN1 [(S,R)-MEFLOQUINE]	–	11.5	–
CN1CCN(S(=O)(=O)c2ccc(Nc3nccc(Nc4ccc5nc[nH]c5c4)n3)cc2)CC1	1.2	> 25	–
Cc1cccc(NC(=O)Nc2cccc(Nc3nccc(Nc4ccc5cn[nH]c5c4)n3)c2)c1	0.32	2.8	–
c1cc(Nc2ccc3cn[nH]c3c2)nc(Nc2ccc(OCCN3CCOCC3)cc2)n1	2.1	15	–
O=S(=O)(c1ccc(Nc2nccc(Nc3ccc4nc[nH]c4c3)n2)cc1)N1CCOCC1	7.1	> 25	–
O=C(Nc1ccc(Nc2nccc(Nc3ccc4cn[nH]c4c3)n2)cc1)Nc1cccc(F)c1	1	6.6	–
O=C(Nc1ccccc1)Nc1ccc(Nc2nccc(Nc3ccc4cn[nH]c4c3)n2)cc1	0.92	11	–
Cc1cnc(Nc2cccc(NC(=O)Nc3ccccc3)c2)nc1Nc1ccc2cn[nH]c2c1	0.15	3.6	–
O=C(Nc1ccccc1)Nc1cccc(Nc2nccc(Nc3ccc4cn[nH]c4c3)n2)c1	0.47	8.2	–
O=C(Nc1ccccc1)Nc1cccc(Nc2nccc(Nc3ccc4[nH]ccc4c3)n2)c1	0.093	5	inhibition [3]: 32.2%; CLH [4]: 8.8 mL/min/g; solubility [5]: 0.33 µg/mL (≈ 0.758 µM); logD at 6 h [6]: ≥ 4; inhibition [7]: 84%; inhibition [8]: 1.8%; inhibition [9]: 56.7%; CLH [10]: 5 mL/min/g; inhibition [11]: 68%; inhibition [12]: 26.6%; inhibition [13]: 71.4%; inhibition [14]: 21.7%; inhibition [15]: 45.9%; inhibition [16]: 99.6%
Cc1c2ccc(Nc3ccnc(Nc4cccc(NC(=O)Nc5ccccc5)c4)n3)cc2nn1C	0.17	2.4	–
O=C(Nc1ccccc1)Nc1cccc(Nc2nccc(Nc3ccc4nc[nH]c4c3)n2)c1	0.54	11	–
